In patent US8192962B2, “Processes for detecting toxic substances” (Daikin Industries, Ltd., priority 2001, dated 2012):

Tested on: Unknown protein yeast genes
Experiment: DNA chip mRNA expression in yeast, unknown protein yeast genes (Table 1)
Type: cell-based, Saccharomyces cerevisiae S288C
Outline: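 Expression change after 2 h toxicant exposure (growth-inhibiting, sub-lethal) of log-phase S. cerevisiae S288C at 25° C. Oligo-dT-purified mRNA was labeled with Cy3-dUTP or Cy5-dUTP and hybridized >12 h at 65° C. to a genome-wide chip; ratio of scanned fluorescence to control.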

CCCCCCCCCCCCOS(=O)(=O)[O-].[Na+] [(18), sodium lauryl sulfate]
The level of expressed mRNA in the presence of chemical substance/The level of expressed mRNA in the absence of chemical substance (yeast gene YKL151C, incubated two hours with chemical substance): 1.8
The level of expressed mRNA in the presence of chemical substance/The level of expressed mRNA in the absence of chemical substance (yeast gene YKL153W, incubated two hours with chemical substance): 1.3
The level of expressed mRNA in the presence of chemical substance/The level of expressed mRNA in the absence of chemical substance (yeast gene YKL195W, incubated two hours with chemical substance): 1.6
The level of expressed mRNA in the presence of chemical substance/The level of expressed mRNA in the absence of chemical substance (yeast gene YKR091W, incubated two hours with chemical substance): 1.3
The level of expressed mRNA in the presence of chemical substance/The level of expressed mRNA in the absence of chemical substance (yeast gene YLR054C, incubated two hours with chemical substance): 1.1
The level of expressed mRNA in the presence of chemical substance/The level of expressed mRNA in the absence of chemical substance (yeast gene YLR149C, incubated two hours with chemical substance): 3.0
The level of expressed mRNA in the presence of chemical substance/The level of expressed mRNA in the absence of chemical substance (yeast gene YLR152C, incubated two hours with chemical substance): 1.8
The level of expressed mRNA in the presence of chemical substance/The level of expressed mRNA in the absence of chemical substance (yeast gene YLR194C, incubated two hours with chemical substance): 0.9
The level of expressed mRNA in the presence of chemical substance/The level of expressed mRNA in the absence of chemical substance (yeast gene YLR324W, incubated two hours with chemical substance): 1.2
The level of expressed mRNA in the presence of chemical substance/The level of expressed mRNA in the absence of chemical substance (yeast gene YLR350W, incubated two hours with chemical substance): 1.1
The level of expressed mRNA in the presence of chemical substance/The level of expressed mRNA in the absence of chemical substance (yeast gene YLR387C, incubated two hours with chemical substance): 1.4
The level of expressed mRNA in the presence of chemical substance/The level of expressed mRNA in the absence of chemical substance (yeast gene YLR460C): 1.1
The level of expressed mRNA in the presence of chemical substance/The level of expressed mRNA in the absence of chemical substance (yeast gene YML117W, incubated two hours with chemical substance): 1.3
The level of expressed mRNA in the presence of chemical substance/The level of expressed mRNA in the absence of chemical substance (yeast gene YMR009W, incubated two hours with chemical substance): 2.5
The level of expressed mRNA in the presence of chemical substance/The level of expressed mRNA in the absence of chemical substance (yeast gene YMR067C, incubated two hours with chemical substance): 1.0
The level of expressed mRNA in the presence of chemical substance/The level of expressed mRNA in the absence of chemical substance (yeast gene YMR090W): 2.8
The level of expressed mRNA in the presence of chemical substance/The level of expressed mRNA in the absence of chemical substance (yeast gene YMR095C, incubated two hours with chemical substance): 1.0
The level of expressed mRNA in the presence of chemical substance/The level of expressed mRNA in the absence of chemical substance (yeast gene YMR097C, incubated two hours with chemical substance): 1.8
The level of expressed mRNA in the presence of chemical substance/The level of expressed mRNA in the absence of chemical substance (yeast gene YMR102C, incubated two hours with chemical substance): 2.8
The level of expressed mRNA in the presence of chemical substance/The level of expressed mRNA in the absence of chemical substance (yeast gene YMR107W, incubated two hours with chemical substance): 8.1
The level of expressed mRNA in the presence of chemical substance/The level of expressed mRNA in the absence of chemical substance (yeast gene YMR180C, incubated two hours with chemical substance): 1.7
The level of expressed mRNA in the presence of chemical substance/The level of expressed mRNA in the absence of chemical substance (yeast gene YMR184W, incubated two hours with chemical substance): 2.0
The level of expressed mRNA in the presence of chemical substance/The level of expressed mRNA in the absence of chemical substance (yeast gene YMR191W, incubated two hours with chemical substance): 2.1
The level of expressed mRNA in the presence of chemical substance/The level of expressed mRNA in the absence of chemical substance (yeast gene YMR295C, incubated two hours with chemical substance): 3.4
The level of expressed mRNA in the presence of chemical substance/The level of expressed mRNA in the absence of chemical substance (yeast gene YMR315W): 2.8
The level of expressed mRNA in the presence of chemical substance/The level of expressed mRNA in the absence of chemical substance (yeast gene YMR316W, incubated two hours with chemical substance): 6.4
The level of expressed mRNA in the presence of chemical substance/The level of expressed mRNA in the absence of chemical substance (yeast gene YNL044W, incubated two hours with chemical substance): 3.4
The level of expressed mRNA in the presence of chemical substance/The level of expressed mRNA in the absence of chemical substance (yeast gene YNL074C, incubated two hours with chemical substance): 1.3
The level of expressed mRNA in the presence of chemical substance/The level of expressed mRNA in the absence of chemical substance (yeast gene YNL092W, incubated two hours with chemical substance): 1.6
The level of expressed mRNA in the presence of chemical substance/The level of expressed mRNA in the absence of chemical substance (yeast gene YNL115C, incubated two hours with chemical substance): 2.6
The level of expressed mRNA in the presence of chemical substance/The level of expressed mRNA in the absence of chemical substance (yeast gene YNL144C): 2.8
The level of expressed mRNA in the presence of chemical substance/The level of expressed mRNA in the absence of chemical substance (yeast gene YNL156C, incubated two hours with chemical substance): 1.9
The level of expressed mRNA in the presence of chemical substance/The level of expressed mRNA in the absence of chemical substance (yeast gene YNL234W, incubated two hours with chemical substance): 1.0
The level of expressed mRNA in the presence of chemical substance/The level of expressed mRNA in the absence of chemical substance (yeast gene YNL281W, incubated two hours with chemical substance): 0.9
The level of expressed mRNA in the presence of chemical substance/The level of expressed mRNA in the absence of chemical substance (yeast gene YNL305C, incubated two hours with chemical substance): 1.6
The level of expressed mRNA in the presence of chemical substance/The level of expressed mRNA in the absence of chemical substance (yeast gene YNR068C, incubated two hours with chemical substance): 1.0
The level of expressed mRNA in the presence of chemical substance/The level of expressed mRNA in the absence of chemical substance (yeast gene YOL032W, incubated two hours with chemical substance): 1.8
The level of expressed mRNA in the presence of chemical substance/The level of expressed mRNA in the absence of chemical substance (yeast gene YOL036W, incubated two hours with chemical substance): 0.9
The level of expressed mRNA in the presence of chemical substance/The level of expressed mRNA in the absence of chemical substance (yeast gene YOL047C, incubated two hours with chemical substance): 1.0
The level of expressed mRNA in the presence of chemical substance/The level of expressed mRNA in the absence of chemical substance (yeast gene YOL071W, incubated two hours with chemical substance): 2.0
The level of expressed mRNA in the presence of chemical substance/The level of expressed mRNA in the absence of chemical substance (yeast gene YOL082W, incubated two hours with chemical substance): 2.5
The level of expressed mRNA in the presence of chemical substance/The level of expressed mRNA in the absence of chemical substance (yeast gene YOL083W, incubated two hours with chemical substance): 3.2
The level of expressed mRNA in the presence of chemical substance/The level of expressed mRNA in the absence of chemical substance (yeast gene YOL117W, incubated two hours with chemical substance): 1.4
The level of expressed mRNA in the presence of chemical substance/The level of expressed mRNA in the absence of chemical substance (yeast gene YOL131W, incubated two hours with chemical substance): 0.9
The level of expressed mRNA in the presence of chemical substance/The level of expressed mRNA in the absence of chemical substance (yeast gene YOL150C): 2.2
The level of expressed mRNA in the presence of chemical substance/The level of expressed mRNA in the absence of chemical substance (yeast gene YOL162W, incubated two hours with chemical substance): 0.9
The level of expressed mRNA in the presence of chemical substance/The level of expressed mRNA in the absence of chemical substance (yeast gene YOR019W, incubated two hours with chemical substance): 2.8
The level of expressed mRNA in the presence of chemical substance/The level of expressed mRNA in the absence of chemical substance (yeast gene YOR197W, incubated two hours with chemical substance): 1.5
The level of expressed mRNA in the presence of chemical substance/The level of expressed mRNA in the absence of chemical substance (yeast gene YPL087W, incubated two hours with chemical substance): 2.7
The level of expressed mRNA in the presence of chemical substance/The level of expressed mRNA in the absence of chemical substance (yeast gene YPL196W, incubated two hours with chemical substance): 2.3
The level of expressed mRNA in the presence of chemical substance/The level of expressed mRNA in the absence of chemical substance (yeast gene YPL206C, incubated two hours with chemical substance): 1.9
The level of expressed mRNA in the presence of chemical substance/The level of expressed mRNA in the absence of chemical substance (yeast gene YPL222W, incubated two hours with chemical substance): 0.9
The level of expressed mRNA in the presence of chemical substance/The level of expressed mRNA in the absence of chemical substance (yeast gene YPR023C, incubated two hours with chemical substance): 1.1
The level of expressed mRNA in the presence of chemical substance/The level of expressed mRNA in the absence of chemical substance (yeast gene YPR151C, incubated two hours with chemical substance): 1.4
